How the values were obtained:
TRPV3 = biological target: T1, TRPV3 (Mus musculus, UniProt Q8K424); experiment: Whole-cell patch clamp in CHO cells transfected with mouse Trpv3 cDNA; type: cell-based; conditions: miR-711 10 μM; carvacrol 300 μM
T1 construct: expressed in transfected cells; host or cells: CHO cells (ATCC CRL-9096), plasmid pcDNA3.1-mTrpv3, a gift from Korea University
T1 sequence (Q8K424 1-791): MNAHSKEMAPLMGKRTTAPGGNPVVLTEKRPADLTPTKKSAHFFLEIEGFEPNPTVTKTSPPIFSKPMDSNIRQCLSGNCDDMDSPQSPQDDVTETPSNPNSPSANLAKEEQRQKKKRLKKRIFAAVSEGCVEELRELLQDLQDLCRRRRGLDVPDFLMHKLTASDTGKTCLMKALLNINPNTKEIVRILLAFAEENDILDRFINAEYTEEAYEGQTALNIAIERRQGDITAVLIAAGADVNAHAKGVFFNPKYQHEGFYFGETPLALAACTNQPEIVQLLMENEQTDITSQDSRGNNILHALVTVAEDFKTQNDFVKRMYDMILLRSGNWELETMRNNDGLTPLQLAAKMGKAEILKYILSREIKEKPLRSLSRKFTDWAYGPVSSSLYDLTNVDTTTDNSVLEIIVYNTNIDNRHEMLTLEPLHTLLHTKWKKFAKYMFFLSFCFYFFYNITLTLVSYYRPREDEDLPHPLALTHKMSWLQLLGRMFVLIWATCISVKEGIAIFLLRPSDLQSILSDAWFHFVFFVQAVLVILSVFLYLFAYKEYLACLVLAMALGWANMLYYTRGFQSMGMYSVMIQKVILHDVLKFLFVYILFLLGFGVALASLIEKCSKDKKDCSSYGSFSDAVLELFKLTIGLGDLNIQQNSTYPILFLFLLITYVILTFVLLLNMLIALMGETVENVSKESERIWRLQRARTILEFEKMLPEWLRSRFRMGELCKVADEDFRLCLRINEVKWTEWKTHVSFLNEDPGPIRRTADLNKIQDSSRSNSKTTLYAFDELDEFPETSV
Method: Constructs. The cDNAs of mouse pcDNA3.1-Trpa1, pcDNA3.1-Trpv1, pcDNA3.1-Trpv2, pcDNA3.1-Trpv3, and pcDNA3.1-Trpv4 were kindly provided Dr. Sun Work Hwang from Korea University. Mouse Trpa1 cDNA was subcloned into pCGN-HA backbone (Addgene) using In-Fusion HD Cloning Kit (Clontech Laboratories, CA). Q5 Site-Directed Mutagenesis Kit was used to generate mTrpa1 mutant (M1-M13) based on pCGN-mTrpa1.
Cell Culture and Transfection. CD4^+ Myla cell line was cultured in RPMI 1640 media (GIBCO), supplemented with 2 mM Glutamine (GIBCO), 100 U/mL IL-2 (Sigma), 100 U/mL IL-4 (Sigma), and 10% human AB serum (Sigma). HuT 102 cell line was cultured in RPMI 1640 supplemented with pyruvate, HEPES, and 10% (v/v) fetal bovine serum (HyClone). HEK293-hTRPA1 stable cell line was cultured in MEM (GIBCO) containing 2 mM Glutamine, 4 μg/mL Blasticidin, 10% FBS (v/v). B16 and CHO cells were cultured in high glucose (4.5 g/L) Dulbecco's Modified Eagle's Medium (GIBCO) containing 10% (v/v) fetal bovine serum (GIBCO). Culture media were supplemented with 50 units/mL of penicillin and 50 μg/mL streptomycin, and cultures were maintained with 5% CO2 in 37° C. incubator. Transfection (2 μg cDNA) was performed with Lipofectamine™ 2000 Reagent (Invitrogen) at 80% confluency and the transfected cells were cultured in the same media for 48 hr before electrophysiological and biochemical studies. […]

mTRPA1 = biological target: T2, mTRPA1 (Mus musculus, UniProt Q8BLA8); experiment: Live cell labeling with Cy3-labeled oligos in cultured DRG neurons; type: binding; conditions: 10 μM Cy3-labeled oligo, 15 min
T2 construct: endogenous in cells; host or cells: dissociated mouse DRG neurons in primary culture
T2 sequence (Q8BLA8 whole entry): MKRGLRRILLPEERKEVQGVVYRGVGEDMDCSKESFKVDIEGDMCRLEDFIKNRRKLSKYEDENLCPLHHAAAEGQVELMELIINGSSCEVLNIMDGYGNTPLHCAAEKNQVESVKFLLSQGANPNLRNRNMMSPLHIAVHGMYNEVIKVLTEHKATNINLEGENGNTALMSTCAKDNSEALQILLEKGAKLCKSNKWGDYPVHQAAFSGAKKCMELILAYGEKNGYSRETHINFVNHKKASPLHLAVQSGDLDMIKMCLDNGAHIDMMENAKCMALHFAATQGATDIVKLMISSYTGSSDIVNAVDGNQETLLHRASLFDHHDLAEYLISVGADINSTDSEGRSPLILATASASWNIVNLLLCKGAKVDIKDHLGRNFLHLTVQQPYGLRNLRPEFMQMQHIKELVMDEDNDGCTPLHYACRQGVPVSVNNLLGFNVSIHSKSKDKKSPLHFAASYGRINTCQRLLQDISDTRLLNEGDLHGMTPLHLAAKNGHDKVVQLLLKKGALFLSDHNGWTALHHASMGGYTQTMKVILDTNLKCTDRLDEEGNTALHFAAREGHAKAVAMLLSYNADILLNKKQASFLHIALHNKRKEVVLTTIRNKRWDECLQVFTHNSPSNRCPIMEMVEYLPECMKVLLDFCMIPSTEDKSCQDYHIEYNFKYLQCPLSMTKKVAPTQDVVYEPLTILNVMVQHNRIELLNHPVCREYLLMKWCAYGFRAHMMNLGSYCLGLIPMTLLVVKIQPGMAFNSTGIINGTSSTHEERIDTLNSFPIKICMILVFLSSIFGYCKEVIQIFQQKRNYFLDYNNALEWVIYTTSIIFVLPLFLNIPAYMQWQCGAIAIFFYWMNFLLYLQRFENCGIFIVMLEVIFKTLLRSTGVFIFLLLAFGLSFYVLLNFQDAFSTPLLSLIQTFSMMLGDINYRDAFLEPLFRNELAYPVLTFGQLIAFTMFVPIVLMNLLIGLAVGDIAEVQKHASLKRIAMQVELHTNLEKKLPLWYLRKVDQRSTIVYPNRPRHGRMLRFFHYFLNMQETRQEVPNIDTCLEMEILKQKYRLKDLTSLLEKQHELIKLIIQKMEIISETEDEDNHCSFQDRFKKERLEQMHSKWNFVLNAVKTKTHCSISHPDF
Method: Live Cell Labeling and Immunocytochemistry in Mouse DRG Neurons. Disassociated DRG neurons were plated on Poly-D-Lysine coated coverslips and cultured in Neurobasal medium supplemented with B27 for 24 hr. Cells were incubated with 10 μM Cy3-labeled miR-711 or miR-711 (m6) in extracellular cell solution for 15 min at 37° C. with 5% CO2. Then the coverslips were washed and incubated with TRPA1 primary antibody (Alomone lab, rabbit, 1:100) at 4° C. for 1 hr. The cells on coverslips were incubated with secondary antibody conjugated to FITC (1:100; Jackson ImmunoResearch, West Grove, Pa.) and examined under a Leica SP5 inverted confocal microscope.

Row | Compound | inward currents (TRPV3) | binding to TRPA1 on the cell surface of DRG neurons (mTRPA1)
1 | Cc1ccc(C(C)C)cc1O [carvacrol] | inward currents induced | –
2 | Cy3-labeled miR-711: mmu-miR-711-cy3: gggacccggggagagauguaag-cy3 (SEQ ID NO: 20) (GGGACCCGGGGAGAGAUGUAAG; Cy3 label at 3' end, RNA chemistry otherwise not given here, further chemistry not given here) | – | binds to TRPA1 on the cell surface

From US20210283163A1, “COMPOSITIONS AND METHODS FOR THE TREATMENT OF ACUTE AND CHRONIC PRURITIS” (Duke University, priority 2018, published 2021)
